Patent publication US4000269A, “S-(α-substituted-arylmethylthio, -arylmethylsulfinyl, and -arylmethylsulfonyl)methyl phosphorus esters used as insecticides” (priority 1975, dated 1976)

Legend:
Type in all cases: in vivo
[1] = system: Southern corn rootworm larvae (Diabrotica undecimpunctata); assay: Southern Corn Rootworm Control (treated soil, dust on talc); details: 144 h, potting soil, mortality after 6 days, read-out: Percent Control of Southern Corn Rootworm Larvae; for mortality at 1120.85 g/ha: 1 lbs./Acre; for mortality at 11208.5 g/ha: 10 lbs./Acre; for mortality at 56042.5 g/ha: 50 lbs./Acre
Experimental: Compounds are prepared as dusts on talc. The compounds are dissolved in acetone, and appropriate rates obtained by serial dilution. One and one-quarter milliliters of solution is pipetted onto a standard volume of dust in 1 -ounce jars, and the acetone allowed to evaporate. Twenty-five milliliters of moist soil and about 200 millet seeds are placed in the jar, capped and the contents thoroughly mixed. Ten second-instar larvae of the Southern corn rootworm (Diabrotica undecimpunctata ) are then placed in each jar. Mortality counts are made after 6 days and percent mortality determined.

[2] = system: Tarnished Plant Bug (Lygus lineolaris); assay: A. Tarnished Plant Bug leaf-dip test; details: 48 h, 100 ppm., 2 days, read-out: Percent Mortality, Tarnished plant Bug
Experimental: (§1) Test compounds are prepared as 1000 ppm. solutions in 10 % acetone, 0.2 % Alrodyne 315 , and 89.8 % water. A tenfold dilution is made with 65 % acetone and 35 % water. The primary leaves of Sieva lima bean plants are dipped for 3 to 5 seconds in the test solutions and placed in an exhaust hood to dry. When dry, each leaf is placed in a 4 -inch petri dish with a moist filter paper on the bottom. Ten adult Lygus bugs are aspirated from the stock culture and placed in the petri dish. The dishes are covered and held at 80° F. and 50 % R.H. After 2 days, mortality counts are made.

[3] = system: Boll Weevil (Anthonomus grandis); assay: B. Boll Weevil leaf-dip test; details: 48 h, 100 ppm., 2 days, read-out: Percent Mortality, Boll Weevil
Experimental: as §1, with “The first or second true leaf” for “The primary leaves”, “of young cotton” for “of Sieva lima bean”, “plants is” for “plants are”, “test solution” for “test solutions”, “adult boll weevils” for “adult Lygus bugs”, “are removed” for “are aspirated”

Bean Aphid (Aphis fabae) = assay: C. Bean Aphid spray test; details: 48 h, 2 days, read-out: Percent Mortality, Bean Aphid
Experimental: Compounds are tested at 100 , 10 and 1 ppm. in solution or suspension in 65 % acetone/35 % water. Two-inch fiber pots each containing a nasturtium plant 2 inches high and infested with about 150 aphids 2 days earlier, are placed on a turntable (4 RPM) and sprayed for two revolutions with a No. 154 DeVilbiss Atomizer at 20 psi. air pressure. The spray tip is held about 6 inches from the plants, and the spray is directed so as to give complete coverage of the aphids and the plants. The sprayed plants are laid on their sides on white enamel trays. Mortality estimates are made after holding for 2 days at 70° F. and 50% R.H.

[4] = system: Southern Armyworm (Prodenia eridania); assay: D. Southern Armyworm leaf-dip test; details: Spodoptera eridania, 48 h, 2 days, read-out: Percent Mortality, Southern Armyworm
Experimental: Compounds are tested at 1000 and 100 ppm. in solution or suspension in 65 % acetone/35 % water. Sieva lima bean primary leaves are dipped for 3 seconds in the test solution and set in a hood on a screen to dry. When dry, each leaf is placed in a 4 -inch petri dish which has a moist filter paper in the bottom and ten third-instar armyworm larvae about 3/8 inch long. The dishes are covered and held at 80° F., and 60 % R.H. After 2 days, mortality counts and estimates of the amount of feeding are made. Compounds showing partial kill and/or inhibition of feeding are held an extra day for further observations.

[5] = system: Two-spotted Spider Mite (Tetranychus urticae); assay: E. Two-spotted Spider Mite plant-dip test; details: 48 h, read-out: Percent Mortality, Two-spotted Spider Mite; for mortality at 100 ppm: 2 days
Experimental: Sieva lima bean plants with primary leaves 3 to 4 inches long are infested with about 100 adult mites per leaf 4 hours before use in this test. The mite and egg infested plants are dipped for 3 seconds in the same solutions used in the aphid test, and the plants set in the hood to dry. They are held for 2 days at 80° F., 60% R.H., and the adult mite mortality estimated on one leaf under a steroscopic microscope. The other leaf is left on the plant an additional 5 days and then examined at 10 X power to estimate the kill of eggs and of newly hatched nymphs, giving a measure of ovicidal and residual action, respectively.

[6] = system: Mexican Bean Beetle (Epilachna varivestis); assay: F. Mexican Bean Beetle leaf-dip test; details: 48 h, 2 days, read-out: Percent Mortality, Mexican Bean Beetle
Experimental: Compounds to be tested are made up as 100 or 10 ppm. solutions in 65 % acetone/35 % water. Sieva lima bean leaves are dipped in the test solution and set in the hood to dry. When dry, they are placed in 4 -inch petri dishes which have a moist filter paper in the bottom, and 10 third-instar bean beetles are added to each dish. The dishes are covered and held at 80° F., 60 % R.H. After 2 days, mortality counts and estimates of the amount of feeding are made. Compounds showing kills greater than 75 % are further tested at tenfold dilutions in 65 % acetone/35 % water.

[7] = system: Western Potato Leafhopper (Empoasca abrupta); assay: G. Western Potato Leafhopper plant-dip test; details: 48 h, 2 days, read-out: Percent Mortality, Western Potato Leafhopper
Experimental: Sieva lima bean plants with the primary leaf expanded to 3 to 4 inches are dipped into 100 or 10 ppm. 50 % acetone/50 % water solutions and set in the hood to dry. A 1 -inch piece of the tip of a treated leaf is cut off and placed in a 4 -inch petri dish with a moist filter paper in the bottom. From 3 to 10 second-instar nymphs are tapped from the culture plants into the test dish and rapidly covered. Mortality counts are made after 2 days at 80° F., and 50 % R.H.

[8] = system: Malaria Mosquito (Anopheles quadrimaculatus); assay: H. Malaria Mosquito Adult Test; details: 24 h, adults, 1 day, read-out: Percent Mortality, Malaria Mosquito
Experimental: Solutions of 65% acetone/35% water containing 10 ppm. of test compound are poured into wide-mouth 2-ounce jars, each containing a microscope slide. The slides are removed from the test solution with forceps and laid horizontally to dry on a wide-mouth 4-ounce bottle. When dry, they are placed in the same 4-ounce bottle and 10 4- to 5-day-old mosquitoes of mixed sexes are added to each bottle. A piece of cotton gauze held on by an elastic band serves as a lid, and wad of cotton soaked in 10% honey solution serves as food. Mortality counts are made after 1 day at 80° F., 50% R.H. (relative humidity) Data obtained with the above procedures are reported in Table II below.

Row | Structure (SMILES) | mortality at 1120.85 g/ha [1] | mortality at 11208.5 g/ha [1] | mortality at 56042.5 g/ha [1] | mortality at 100 ppm [2] | mortality at 100 ppm [3] | mortality at 1 ppm (Bean Aphid (Aphis fabae)) | mortality at 10 ppm (Bean Aphid (Aphis fabae)) | mortality at 100 ppm (Bean Aphid (Aphis fabae)) | mortality at 100 ppm [4] | mortality at 1000 ppm [4] | mortality at 100 ppm [5] | mortality at 10 ppm [6] | mortality at 100 ppm [6] | mortality at 10 ppm [7] | mortality at 100 ppm [7] | mortality at 10 ppm [8] | mortality at 300 ppm [5]
1 | CCOP(=S)(OCC)SCSC(C)(C)c1cc(Cl)ccc1Cl [Example 10, S-(2,5-Dichloro-α,α-dimethylbenzylthio)-methyl O,O-Diethyl Phosphorodithioate] | 0% | 100% | 100% | – | – | – | – | – | – | – | – | – | – | – | – | – | –
2 | CCOP(=S)(OCC)SCSC(C)(C)c1cccc(C)c1 [Example 14, S-(m,α,α-Trimethylbenzylthio)methyl O,O-Diethyl Phosphorodithioate] | 100% | 100% | 100% | – | – | – | – | – | – | – | – | – | – | – | – | – | –
3 | CCOP(=S)(OCC)SCSC(C)(CC)c1ccccc1 (stereo not drawn) [Example 21, S-(α-Ethyl-α-methylbenzylthio)methyl O,O-Diethyl Phosphorodithioate] | 0% | 100% | 100% | – | – | – | – | – | – | – | – | – | – | – | – | – | –
4 | CCOP(=S)(OCC)SCSC(CC)(CC)c1ccccc1 [Example 22, S-(α,α-Diethylbenzylthio)methyl O,O-Diethyl Phosphorodithioate] | 50% | 100% | 100% | – | – | – | – | – | – | – | – | – | – | – | – | – | –
5 | COP(=S)(OC)SCSC(C)(C)c1ccc(C#N)cc1 [Example 24, S-(p-Cyano-α,α-dimethylbenzylthio)methyl O,O-Dimethyl Phosphorodithioate] | 0% | 100% | 100% | – | – | – | – | – | – | – | – | – | – | – | – | – | –
6 | CCOP(=S)(OCC)SCSC(C)(C)c1ccccc1 [drawing 6] | – | – | – | 94% | 95% | 85% | 100% | 100% | 100% | 100% | 75% | 40% | 100% | 100% | 100% | 100% | –
7 | CCOP(=S)(OCC)SCSC(C)c1ccccc1 (stereo not shown) [drawing 7] | – | – | – | 70% | 0% | 100% | 100% | 100% | 30% | 100% | 0% | 0% | 100% | 100% | 100% | 100% | 100%
8 | CCOP(=S)(OCC)SC[S+]([O-])C(C)(C)c1ccccc1 (stereo not shown) [drawing 8] | – | – | – | 0% | 100% | 100% | 100% | 100% | 80% | 100% | 100% | 40% | 100% | 100% | 100% | – | 100%
9 | COP(=S)(OC)SCSC(C)(C)c1ccc(C#N)cc1 [drawing 9] | – | – | – | 0% | 90% | 100% | 100% | 100% | 100% | 100% | 100% | – | 90% | 100% | 100% | 60% | 100%
10 | COP(=S)(OC)SCSC(C)(C)c1cc(Cl)ccc1Cl [drawing 10] | – | – | – | 60% | 90% | 50% | 100% | 100% | 100% | 100% | 100% | – | – | 40% | 100% | 70% | 100%
11 | CCOP(=S)(OCC)SCSC(C)(C)c1cc(Cl)ccc1Cl [drawing 11] | – | – | – | 0% | 50% | 50% | 100% | 100% | 100% | 100% | 90% | – | 0% | 50% | 100% | 30% | 100%
12 | COP(=S)(OC)SCSC(C)(C)c1ccccc1 [drawing 13] | – | – | – | 90% | 100% | 80% | 100% | 100% | 100% | 100% | 100% | 80% | 80% | 100% | 100% | – | 100%
13 | CCOP(=S)(OCC)SCSC(C)(C)c1cccc(C)c1 [drawing 17] | – | – | – | 0% | – | 0% | 100% | 100% | 20% | 100% | – | – | – | – | 0% | 0% | 0%
